Laboratory results as given in article PMC3575220, “Inhibition of dengue NS2B-NS3 protease and viral replication in Vero cells by recombinant retrocyclin-1” (BMC Infectious Diseases, 2012).
Where no end group is shown, it is not given here.

Key:
[1] = target: T1, dengue NS2B-NS3pro (Dengue virus type 2, UniProt P29990); test: Fluorogenic NS2B-NS3pro protease inhibition assay; format: biochemical, DENV-2; conditions: pH 8.5, 200 mM Tris–HCl, 20 μM Boc-Gly-Arg-Arg-AMC, 2 μM enzyme, 30 min pre-incubation, 30 min reaction, fluorescence ex 350/em 440 nm, triplicates, ± SD
T1 construct: 6XHis (pQE30 vector) (N); made in house; host or cells: Escherichia coli XL1-Blue
Description: The bioassay used in this study was published by Rothan and co-workers. In brief, endpoint reaction mixtures with total volume of 200 μl were prepared consisted of 20 μM fluorogenic peptide substrate (Boc-Gly-Arg-Arg-AMC), 2 μM of recombinant NS2B-NS3pro, with or without RC-1 of varying concentrations, buffered at pH 8.5 with 200 mM Tris–HCl. The RC-1 was initially prepared in Tris–HCl buffer and assayed at five different concentrations, ranging from 9.3 - 150 μM. Three types of reactions which are buffer, buffer with enzyme and buffer with enzyme and different concentrations of RC-1were incubated at 28°C, 37°C and 40°C for 30 minutes. Subsequently, the substrate was added to each reaction mixture and incubated at same temperatures for another 30 minutes. Measurements were performed in triplicates using Tecan Infinite M200 Pro fluorescence spectrophotometer. Substrate cleavage was normalized against buffer only (control) and optimized at the emission at 440 nm upon excitation at 350 nm. The readings were then used for calculating Km values of peptide substrate and IC50 values of peptide inhibitors using non-linear regression models in GraphPad Prism 5.0 software as previously described.
Figure 4 The inhibition potential of RC-1 against the activity of DENV-2 NS2B-NS3pro. End point protease inhibition assay was carried out to evaluate the inhibitory potential of RC-1 against the protease’s ability to cleave a fluorogenic peptide substrate (Boc-Gly-Arg-Arg-AMC). The reaction mixtures consisted of 20 μM substrate, 2 μM of enzyme, with or without RC-1 of varying concentrations incubated at 28°C, 37°C or 40°C for 30 minutes. The results were normalized with the substrate alone and substrate with protease incubated at same temperatures. […] 2'; read as 1.2

[2] = system: DENV-2 in Vero cells; test: DENV-2 RNA reduction in infected Vero cells by real-time PCR; format: cell-based; conditions: for reduction in viral replication / reduction in total viral RNA copies: 150 μM RC-1, MOI of 2; for reduction in total viral RNA copies: ± SD
Description: Three independent experiments were carried out for pre, simultaneous and post-infection treatments with RC-1 at 24, 48 and 72 hrs of each infection in triplicates. Vero cells were grown in a 24-well tissue culture plate (1 × 10^5 cells/well), incubated 24 hrs under optimal conditions and infected with DENV-2 (MOI of 2). For pre-treatment infection, 150 μM of RC-1 was added to the cells before virus inoculation and incubated for 24 hrs. Afterwards, DENV-2 supernatant was added, followed by incubation for 1 hr with gentle shaking every 10 min for optimal virus to cells contact. The virus supernatant was removed, and the cells were washed twice with fresh serum-free DMEM media to remove residual virus. New complete DMEM media were added and the cultures were incubated for 24, 48 and 72 hrs at 37°C, supplemented with 5% CO2. Same applications were used for simultaneous treatment infection except the peptide was mixed with the virus supernatant and incubated at 37°C for 1 h, and then inoculated onto Vero cells. The post-treatment infection was carried out after inoculation of Vero cells with DENV-2 and the complete DMEM medium was added containing the RC-1. Then, the cultures were incubated for 24, 48 and 72 hrs at 37°C and 5% CO2 with three wells of infected cells in each experiment were kept without RC-1 as controls. Cellular supernatants were collected and stored at −80°C for viral quantification using real time PCR.
For quantification of copy number of DENV-2 RNA, the standard curve was generated by 10-fold serial dilution of known copies of DENV-2 RNA. Viral RNA was extracted from culture supernatant using QIAmp viral RNA mini kit (Qiagen, Germany) according to the manufacturer’s instructions. A fragment located at the 5'UTR region of the virus genome was used to generate the primers. One-step RT-PCR using SyBr Green Master Kit (Qiagen, Germany) was used to conduct absolute quantification using ABI7300 machine from Applied Biosystems (Foster City, CA). The PCR profile was 1 cycle of 50°C for 2 min, 1 cycle of 95°C for 10 min, 40 cycles of 10 sec denaturation at 95°C, 20 sec annealing at 57.7°C with a single fluorescence emission measurement and 30 sec extension at 72°C, followed by 5 min at 72°C for final extension. Dissociation curve analysis was added to the end of each run. Results were analyzed using the company's Sequence Detection Software Version 1.3.
(§1) Figure 5 The percentage of viral reduction in Vero cells after different treatments with RC-1. (A) RC-1 was diluted to various concentrations (37.5, 75, 100, 125, 150 and 175 μM) with DMEM media supplemented with 2 % FBS and added to the cell culture. The viability of cells was analyzed at 24, 48 and 72 hrs using Non-Radioactive Cell Proliferation assay. (B) The cells were grown under the optimal conditions and infected with DENV-2 at the MOI of 2. The MNTD of RC-1 (150 μM) was used to treat infected Vero cells and the results were normalized with infected cells without RC-1 as controls. Pre, simultaneous and post-infection treatments with RC-1 were applied at 24, 48 and 72 hrs of each infection. The percentage of inhibition was the highest for simultaneous treatment compared to pre and post-treatment. (Two way ANOVA was used with Bonferroni post-test, P < 0.0001).

[3] = system: Vero cells; test: Maximum non-toxic dose test (cell proliferation assay); format: cell-based
Description: Vero cells were seeded at 1 × 10^4 cells per well in triplicate in 96 well plates and propagated at optimal conditions (37°C, 5% CO2 in humidified incubator). Recombinant RC-1 was diluted to serial concentrations (37.5, 75, 100, 125, 150 and 175 μM) with DMEM media supplemented with 2% FBS. Each dilution was tested in triplicate. Two control wells were included in each experiment: culture medium without RC-1 and culture medium with different concentrations of the RC-1 in the absence of cells to subtract the background value of RC-1 in the culture medium. The cell cultures were analyzed at 24, 48 and 72 hours using Non-Radioactive Cell Proliferation assay (Promega, USA) according to the manufacturer’s instructions.
as §1

[4] = system: E. coli; test: Disc diffusion susceptibility test, E. coli; format: cell-based; conditions: 0.1 mg/ml RC-1, Mueller-Hinton agar, clear circular zone
Description: (§2) The disc diffusion susceptibility test was used to evaluate antimicrobial activity of the recombinant RC-1. The samples of recombinant RC-1 before and after refolding applications (100 μg/ml) were dropped onto a filter paper discs (0.1 mg/ml) and left to dry at room temperature. Then, the filters paper discs placed on an E. coli-inoculated Mueller-Hinton agar and a Saccharomyces cerevisiae inoculated yeast extract peptone dextrose (YPD) agar plates. Both E. coli and yeast inoculated plates were inoculated for 16 hrs at […] and 30°C, respectively.
(§3) Figure 2 Antimicrobial activity of recombinant RC-1 after refolding. Each sample of RC-1 before and after refolding (0.1 mg/ml) was dropped on filter papers discs and left to dry at room temperature. The dry filter paper discs were placed on E. coli and yeast-inoculated antibiotic-free Mueller-Hinton-gar and YPD-agar plates respectively and incubated overnight at 37°C (E. coli) or 30°C (yeast).

[5] = system: yeast (Saccharomyces cerevisiae); test: Disc diffusion susceptibility test, yeast; format: cell-based; conditions: 0.1 mg/ml RC-1, YPD agar, 30°C, clear circular zone
Description: as §2, §3

[6] = cited from earlier work
Excerpt: We conducted this study to evaluate the effect of RC-1, a cationic cyclic peptide on the activity of dengue protease as a target to inhibit replication of dengue virus. The RC-1 was produced inexpensively as a soluble recombinant peptide in E. coli and the tri-disulphide bonds were correctly reformed in alkaline and diluted environment. […] Furthermore, this peptide is able to provide long-lasting prote ...

[7] = up to 500 μg/ml (250 μM); cited from earlier work
Excerpt: (§4) It has been known that the compound toxicity could hinder the development of drugs against dengue virus.

[8] = system: different cell lines; conditions: up to 500 μg/ml (250 μM); cited from earlier work
Excerpt: as §4

GICRCICGRGICRCICGR (also: bicyclic or more (positions not given here)) [RC-1, retrocyclin-1, disulphide cyclic peptide, theta-defensin analogue, circular, cationic, tri-disulphide bonded (Cys3-Cys16, Cys5-Cys14, Cys7-Cys12)]
IC50 ([1]; 28°C): 46.1 ± 1.7 µM
IC50 ([1]; 37°C): 21.4 ± 1.6 µM
IC50 ([1]; 40°C): 14.1 ± 1.2 µM
reduction in viral replication ([2]; post-treatment, 48 hrs, triplicates): 30%
reduction in viral replication ([2]; post-treatment, 72 hrs, triplicates): 45%
viral replication (in words) ([2]; pre, simultaneous and post infection treatment modes, maximum non-toxic dose): significantly declined
reduction in viral replication ([2]; pre-treatment (24 hrs before virus), 48 hrs, triplicates): 40%
reduction in viral replication ([2]; pre-treatment (24 hrs before virus), 72 hrs, triplicates): 38%
reduction in total viral RNA copies ([2]; simultaneous treatment, 24 hrs, triplicates): 45.5% ± 4.2
reduction in viral replication ([2]; simultaneous treatment, 72 hrs): 85%
reduction in total viral RNA copies ([2]; simultaneous treatment, 72 hrs, triplicates): 85% ± 7.1
cellular morphological abnormalities ([3]; Vero cells): no noticeable cellular morphological abnormalities
cellular toxicity (in words) ([3]; Vero cells, 150 μM): low cellular toxicity
maximum non-toxic dose (MNTD) ([3]; all three incubation periods, 24, 48 and 72 hrs, 37.5-175 μM tested, DMEM 2% FBS, triplicate): 150 µM
antimicrobial activity [4]: exhibited antimicrobial activity
antimicrobial activity [5]: exhibited antimicrobial activity
fold potency of cyclic RC-1 over the open chain analogue [6]: 3 fold
haemolytic activity [7]: neither haemolytic activity nor cytotoxicity
cytotoxicity in different cell lines [8]: neither haemolytic activity nor cytotoxicity
